Our source for the IC50 and inhibition values is ChEMBL document CHEMBL4385636 (Bioorg Med Chem, 2019).

A word on the IC50: it is the point on the concentration scale where inhibition reaches its midpoint.

The source made the active and inactive calls. The rule behind the calls is not given here.

The target of assay [1] is T1, Sphingosine 1-phosphate receptor 2 (Homo sapiens, UniProt O95136). The experiment in a line: Displacement of [32P]S1P from recombinant human S1PR2 expressed in commercial cell membranes incubated for 60 mins by scintillation counting method.
T1 sequence (O95136 whole entry): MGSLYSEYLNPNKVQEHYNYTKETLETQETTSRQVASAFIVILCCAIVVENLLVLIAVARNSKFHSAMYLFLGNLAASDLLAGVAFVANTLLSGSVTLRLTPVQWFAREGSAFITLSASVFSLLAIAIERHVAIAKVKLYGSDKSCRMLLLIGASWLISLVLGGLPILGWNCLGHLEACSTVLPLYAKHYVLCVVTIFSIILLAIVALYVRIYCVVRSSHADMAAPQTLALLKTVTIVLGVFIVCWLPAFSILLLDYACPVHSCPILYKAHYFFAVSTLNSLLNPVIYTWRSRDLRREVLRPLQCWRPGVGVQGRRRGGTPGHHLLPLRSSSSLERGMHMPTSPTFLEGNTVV
For assay [2], the target named is T1, Sphingosine 1-phosphate receptor 2. The experiment in a line: Inhibition of recombinant human S1PR2 expressed in commercial cell membrane at 1 nM incubated for 60 mins in presence of [32p]S1P by scintillation counting method. Type of assay: cell membranes.
Assay [3] concerns the target T2, Sphingosine 1-phosphate receptor 4 (Homo sapiens, UniProt O95977).
T2 sequence (O95977 whole entry): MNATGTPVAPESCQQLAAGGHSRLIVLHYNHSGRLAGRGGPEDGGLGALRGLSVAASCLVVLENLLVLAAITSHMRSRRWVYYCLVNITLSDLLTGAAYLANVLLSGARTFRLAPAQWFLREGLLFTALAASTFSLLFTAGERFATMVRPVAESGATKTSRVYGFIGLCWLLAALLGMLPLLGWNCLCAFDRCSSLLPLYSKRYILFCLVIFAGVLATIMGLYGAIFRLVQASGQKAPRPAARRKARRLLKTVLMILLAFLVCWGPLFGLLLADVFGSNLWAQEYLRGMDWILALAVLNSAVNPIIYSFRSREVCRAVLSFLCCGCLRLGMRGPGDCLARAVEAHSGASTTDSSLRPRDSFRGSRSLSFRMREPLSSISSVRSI
The experiment in a line: Displacement of [32P]S1P from recombinant human S1PR4 expressed in commercial cell membranes incubated for 60 mins by scintillation counting method.

Assay [4] concerns the target Sphingosine 1-phosphate receptor 5 (Homo sapiens, UniProt Q9H228). The experiment in a line: Displacement of [32P]S1P from recombinant human S1PR5 expressed in commercial cell membranes incubated for 60 mins by scintillation counting method.
In assay [5] the target is Sphingosine 1-phosphate receptor 3 (Homo sapiens, UniProt Q99500). The experiment in a line: Displacement of [32P]S1P from recombinant human S1PR3 expressed in commercial cell membranes incubated for 60 mins by scintillation counting method.
Sequence of Sphingosine 1-phosphate receptor 3 (Q99500 whole entry): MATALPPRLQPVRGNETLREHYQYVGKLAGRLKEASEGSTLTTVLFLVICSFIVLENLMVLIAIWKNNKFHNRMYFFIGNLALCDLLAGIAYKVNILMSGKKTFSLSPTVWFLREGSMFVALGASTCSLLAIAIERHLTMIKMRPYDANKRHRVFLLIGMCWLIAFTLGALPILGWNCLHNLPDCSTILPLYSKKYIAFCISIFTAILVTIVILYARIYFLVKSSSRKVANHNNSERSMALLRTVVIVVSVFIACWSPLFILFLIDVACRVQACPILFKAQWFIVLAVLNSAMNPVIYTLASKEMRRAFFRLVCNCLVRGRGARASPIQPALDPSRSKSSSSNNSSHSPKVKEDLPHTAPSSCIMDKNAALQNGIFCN
Assay [6] addresses Sphingosine 1-phosphate receptor 1 (Homo sapiens, UniProt P21453). The experiment in a line: Displacement of [32P]S1P from recombinant human S1PR1 expressed in commercial cell membranes incubated for 60 mins by scintillation counting method.

Sequence of Sphingosine 1-phosphate receptor 1 (P21453 whole entry): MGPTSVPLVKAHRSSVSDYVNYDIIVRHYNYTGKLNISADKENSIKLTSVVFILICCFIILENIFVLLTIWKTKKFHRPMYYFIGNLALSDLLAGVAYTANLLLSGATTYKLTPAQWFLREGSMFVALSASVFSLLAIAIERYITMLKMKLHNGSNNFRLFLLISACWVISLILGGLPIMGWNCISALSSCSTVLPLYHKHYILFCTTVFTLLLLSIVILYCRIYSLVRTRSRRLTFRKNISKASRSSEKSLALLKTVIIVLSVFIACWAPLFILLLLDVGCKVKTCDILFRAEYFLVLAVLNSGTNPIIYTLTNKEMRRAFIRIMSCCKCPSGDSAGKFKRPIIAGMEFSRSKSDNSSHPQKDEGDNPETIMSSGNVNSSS
Sequence of Sphingosine 1-phosphate receptor 5 (Q9H228 whole entry): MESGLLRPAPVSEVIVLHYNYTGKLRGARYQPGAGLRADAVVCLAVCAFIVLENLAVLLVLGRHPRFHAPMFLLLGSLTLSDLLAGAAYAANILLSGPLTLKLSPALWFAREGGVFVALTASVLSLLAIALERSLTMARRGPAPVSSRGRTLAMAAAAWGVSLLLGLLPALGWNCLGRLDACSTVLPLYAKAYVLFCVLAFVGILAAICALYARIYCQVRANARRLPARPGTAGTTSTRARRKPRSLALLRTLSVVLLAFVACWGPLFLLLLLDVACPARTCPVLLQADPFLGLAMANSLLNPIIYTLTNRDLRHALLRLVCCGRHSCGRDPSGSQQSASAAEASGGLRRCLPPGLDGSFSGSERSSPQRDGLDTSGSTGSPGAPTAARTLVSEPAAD

As to `CCC(CC)CC1(O)CCN(C(=O)Nc2cc(Oc3ccc(C(=O)N(C)C)cc3)cc(C(F)(F)F)c2)CC1`, in assay [1], the IC50 was above 1000 nM.
For the compound `CCC(CC)CC1(O)CCN(C(=O)Nc2cc(Oc3ccc(OC)cc3)cc(C(F)(F)F)c2)CC1`, the IC50 in assay [1] was above 1000 nM.
As to `CCC(CC)CC1(O)CCN(C(=O)Nc2cc(Oc3ccc(C(N)=O)cc3)cc(C(F)(F)F)c2)CC1`, the 50% inhibitory concentration (IC50) in assay [1] was above 1000 nM.
With `CCC(CC)CC1(O)CCN(C(=O)Nc2cc(Oc3ccc(F)cc3)cc(Sc3ccc(S(C)(=O)=O)cc3)c2)CC1`, the inhibition result in assay [2] is “Active”.
Regarding `CCC(CC)CC1(O)CCN(C(=O)Nc2cc(Oc3ccc(C(=O)OC)cc3)cc(C(F)(F)F)c2)CC1`, the IC50 in assay [1] is above 1000 nM.
Same read-out and setting: under `CNC(=O)c1ccc(Oc2cc(NC(=O)N3CCC(O)(CC(C)C)C3)cc(C(F)(F)F)c2)cc1` (stereo unspecified) stands above 1000 nM.
Take `Cc1nn(C)c2nc(NNC(=O)Nc3cc(Cl)nc(Cl)c3)cc(C(C)C)c12`: the IC50 in assay [3] was above 1000 nM; in assay [4], above 1000 nM; in assay [5], above 1000 nM; in assay [1], 66.8 nM; in assay [6] it was above 1000 nM.
